Test: nepafenac concentration in ocular tissues of rabbits following a single topical dose
Format: in vivo
Details: topical ocular administration of 0.3% nepafenac, simple formulation without penetration enhancers
Procedure: The estimated concentration within the anterior chamber following topical ocular administration of 0.3% nepafenac to rabbits is 24 μM (see FIGS. 1 and 2). This concentration, achieved using a simple formulation without penetration enhancers, is in excess of the parent compounds' COX I and COX II IC50s. This enhanced bioavailability provides a significant advantage and is unexpected over other non-steroidal anti-inflammatory drugs as well as amide derivatives of non-steroidal anti-inflammatory drugs. The compounds disclosed in the '034 patent, the contents of which are incorporated herein by reference, are ester and amide derivatives of 3-benzoylphenylacetic acid.

estimated concentration within the anterior chamber: 24 µM
Compound: NC(=O)Cc1cccc(C(=O)c2ccccc2)c1N [nepafenac, 2-Amino-3-benzoyl-phenylacetamide]
